Reference: ChEMBL document CHEMBL5149994, “Anticancer potential of indirubins in medicinal chemistry: Biological activity, structural modification, and structure-activity relationship” (Eur J Med Chem, 2021)
Values after ≈ are worked out from the molar mass of the structure shown. Each block holds one compound with its values, some of them ahead of it.

Key:
SNU-638 = experiment: Antiproliferative activity against human SNU-638 cells assessed as cell growth inhibition measured after 24 hrs by MTT assay; format: functional, cell-based; details: SNU-638, 24 h
A549 [1] = experiment: Antiproliferative activity against human A549 cells assessed as cell growth inhibition measured after 24 hrs by MTT assay; format: functional, cell-based; details: A549, 24 h
HT-1080 = experiment: Antiproliferative activity against human HT-1080 cells assessed as cell growth inhibition measured after 24 hrs by MTT assay; format: functional, cell-based; details: HT-1080, 24 h
[2] = Cytotoxicity against rat RK3E cells harboring RAS assessed as cell growth inhibition measured after 24 hrs by MTT assay; format: toxicity, cell-based
[3] = molecular target: Cyclin-dependent kinase 5/CDK5 activator 1 (Homo sapiens, UniProt Q00535); experiment: Inhibition of CDK5/p35 (unknown origin); format: protein-complex assay
Sequence of Cyclin-dependent kinase 5/CDK5 activator 1 (Q00535 whole entry): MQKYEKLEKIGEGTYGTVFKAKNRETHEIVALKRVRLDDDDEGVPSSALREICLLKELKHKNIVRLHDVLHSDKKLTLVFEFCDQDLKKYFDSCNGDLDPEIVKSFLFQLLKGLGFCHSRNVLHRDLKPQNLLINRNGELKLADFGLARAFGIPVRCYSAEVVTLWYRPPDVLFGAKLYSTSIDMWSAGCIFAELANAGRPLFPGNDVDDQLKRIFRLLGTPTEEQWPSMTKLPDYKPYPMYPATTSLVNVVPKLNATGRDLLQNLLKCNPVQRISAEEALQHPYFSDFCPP
Sequence of Cyclin-dependent kinase 5/CDK5 activator 1 (Q15078 whole entry, further chain): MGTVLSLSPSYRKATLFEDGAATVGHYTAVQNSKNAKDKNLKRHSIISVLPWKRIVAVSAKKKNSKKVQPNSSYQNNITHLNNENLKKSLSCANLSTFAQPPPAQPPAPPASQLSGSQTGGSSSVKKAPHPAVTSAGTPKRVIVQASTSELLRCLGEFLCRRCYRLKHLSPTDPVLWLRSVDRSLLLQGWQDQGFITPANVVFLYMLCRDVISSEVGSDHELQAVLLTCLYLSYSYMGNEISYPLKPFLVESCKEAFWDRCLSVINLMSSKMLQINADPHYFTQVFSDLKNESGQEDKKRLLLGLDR

[4] = Inhibition of starfish oocyte CDK1/Cyclin B using histone H1 as substrate incubated for 10 mins in presence of [gamma-32P]ATP by scintillation counter analysis; set-up: species or system Marthasterias glacialis
HL-60 [5] = experiment: Cytotoxicity against human HL-60 cells assessed as cell growth inhibition; format: functional, cell-based
SW480 [6] = experiment: Antiproliferative activity against human SW480 cells assessed as cell growth inhibition measured after 96 hrs by MTT assay; format: functional, cell-based; details: SW480, 96 h
A549 [7] = experiment: Antiproliferative activity against human A549 cells assessed as cell growth inhibition measured after 96 hrs by MTT assay; format: functional, cell-based; details: A549, 96 h
CH1 = experiment: Antiproliferative activity against human CH1 cells assessed as cell growth inhibition measured after 96 hrs by MTT assay; format: functional, cell-based; details: CH1, 96 h
SW480 [8] = experiment: Antiproliferative activity against human SW480 cells assessed as cell growth inhibition measured after 72 hrs by MTT assay; format: functional, cell-based; details: SW480, 72 h
HepG2 = experiment: Antiproliferative activity against human HepG2 cells assessed as cell growth inhibition measured after 72 hrs by MTT assay; format: functional, cell-based; details: HepG2, 72 h
[9] = Antiproliferative activity against human Lu1 cells assessed as cell growth inhibition measured after 72 hrs by MTT assay; format: functional, cell-based; details: Lu1, 72 h
HL-60 [10] = experiment: Antiproliferative activity against human HL-60 cells assessed as cell growth inhibition measured after 72 hrs by MTT assay; format: functional, cell-based; details: HL-60, 72 h
MV4-11 = experiment: Cytotoxicity in human MV4-11 cells assessed as cell growth inhibition incubated for 48 hrs by propidium iodide staining based flow cytometry assay; format: functional
MCF7 = experiment: Cytotoxicity against human MCF7 cells assessed as cell growth inhibition by MTT assay; format: functional, cell-based
DU-145 = experiment: Cytotoxicity against human DU-145 cells assessed as cell growth inhibition by MTT assay; format: functional, cell-based
LoVo = experiment: Cytotoxicity against human LoVo cells assessed as cell growth inhibition by MTT assay; format: functional, cell-based
LNCaP = experiment: Cytotoxicity against human LNCaP cells assessed as cell growth inhibition by MTT assay; format: functional, cell-based
PC-3 = experiment: Cytotoxicity against human PC-3 cells assessed as cell growth inhibition by MTT assay; format: functional, cell-based
[11] = molecular target: Hepatocyte growth factor receptor (Homo sapiens, UniProt P08581); experiment: Inhibition of c-met (unknown origin) by TR-FRET assay
Sequence of Hepatocyte growth factor receptor (P08581 whole entry): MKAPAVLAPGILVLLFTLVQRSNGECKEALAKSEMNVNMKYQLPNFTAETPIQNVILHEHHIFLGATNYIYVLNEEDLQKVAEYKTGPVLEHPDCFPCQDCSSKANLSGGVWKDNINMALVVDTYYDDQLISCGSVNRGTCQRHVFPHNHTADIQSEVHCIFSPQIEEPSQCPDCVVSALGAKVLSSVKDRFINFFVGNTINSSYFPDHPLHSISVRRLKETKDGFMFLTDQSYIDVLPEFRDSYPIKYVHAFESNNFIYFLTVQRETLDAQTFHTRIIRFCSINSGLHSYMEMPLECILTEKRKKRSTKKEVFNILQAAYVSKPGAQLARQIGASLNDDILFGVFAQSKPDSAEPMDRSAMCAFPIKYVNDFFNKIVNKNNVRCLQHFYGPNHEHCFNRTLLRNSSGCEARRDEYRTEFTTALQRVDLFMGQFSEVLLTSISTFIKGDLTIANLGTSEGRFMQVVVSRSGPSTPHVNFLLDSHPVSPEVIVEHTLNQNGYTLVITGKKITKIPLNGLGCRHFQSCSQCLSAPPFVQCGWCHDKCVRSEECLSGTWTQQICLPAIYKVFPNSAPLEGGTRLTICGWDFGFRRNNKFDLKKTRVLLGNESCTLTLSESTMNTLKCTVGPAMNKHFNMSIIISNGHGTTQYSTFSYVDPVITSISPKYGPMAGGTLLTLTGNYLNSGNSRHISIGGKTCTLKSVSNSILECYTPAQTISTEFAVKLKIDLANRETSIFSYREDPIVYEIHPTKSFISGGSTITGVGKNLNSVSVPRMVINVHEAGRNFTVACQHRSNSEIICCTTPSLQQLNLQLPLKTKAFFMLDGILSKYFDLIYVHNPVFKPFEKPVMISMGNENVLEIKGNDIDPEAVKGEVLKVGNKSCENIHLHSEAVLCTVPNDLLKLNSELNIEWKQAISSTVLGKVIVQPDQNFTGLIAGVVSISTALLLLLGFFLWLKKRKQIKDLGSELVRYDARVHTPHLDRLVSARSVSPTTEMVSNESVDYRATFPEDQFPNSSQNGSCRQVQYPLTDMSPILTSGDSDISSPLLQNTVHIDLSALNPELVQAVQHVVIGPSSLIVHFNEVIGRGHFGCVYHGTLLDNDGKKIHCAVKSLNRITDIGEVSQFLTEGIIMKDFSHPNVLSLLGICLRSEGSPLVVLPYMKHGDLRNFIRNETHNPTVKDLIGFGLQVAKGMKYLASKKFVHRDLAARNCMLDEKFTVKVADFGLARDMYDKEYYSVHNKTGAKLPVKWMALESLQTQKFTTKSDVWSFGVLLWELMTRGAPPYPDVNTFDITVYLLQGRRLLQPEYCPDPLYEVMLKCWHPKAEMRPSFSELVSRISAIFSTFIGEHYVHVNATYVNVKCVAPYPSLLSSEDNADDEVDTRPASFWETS

[12] = molecular target: Tyrosine-protein kinase JAK2 (Homo sapiens, UniProt O60674); experiment: Inhibition of JAK2 (unknown origin) by TR-FRET assay
Sequence of Tyrosine-protein kinase JAK2 (O60674 whole entry): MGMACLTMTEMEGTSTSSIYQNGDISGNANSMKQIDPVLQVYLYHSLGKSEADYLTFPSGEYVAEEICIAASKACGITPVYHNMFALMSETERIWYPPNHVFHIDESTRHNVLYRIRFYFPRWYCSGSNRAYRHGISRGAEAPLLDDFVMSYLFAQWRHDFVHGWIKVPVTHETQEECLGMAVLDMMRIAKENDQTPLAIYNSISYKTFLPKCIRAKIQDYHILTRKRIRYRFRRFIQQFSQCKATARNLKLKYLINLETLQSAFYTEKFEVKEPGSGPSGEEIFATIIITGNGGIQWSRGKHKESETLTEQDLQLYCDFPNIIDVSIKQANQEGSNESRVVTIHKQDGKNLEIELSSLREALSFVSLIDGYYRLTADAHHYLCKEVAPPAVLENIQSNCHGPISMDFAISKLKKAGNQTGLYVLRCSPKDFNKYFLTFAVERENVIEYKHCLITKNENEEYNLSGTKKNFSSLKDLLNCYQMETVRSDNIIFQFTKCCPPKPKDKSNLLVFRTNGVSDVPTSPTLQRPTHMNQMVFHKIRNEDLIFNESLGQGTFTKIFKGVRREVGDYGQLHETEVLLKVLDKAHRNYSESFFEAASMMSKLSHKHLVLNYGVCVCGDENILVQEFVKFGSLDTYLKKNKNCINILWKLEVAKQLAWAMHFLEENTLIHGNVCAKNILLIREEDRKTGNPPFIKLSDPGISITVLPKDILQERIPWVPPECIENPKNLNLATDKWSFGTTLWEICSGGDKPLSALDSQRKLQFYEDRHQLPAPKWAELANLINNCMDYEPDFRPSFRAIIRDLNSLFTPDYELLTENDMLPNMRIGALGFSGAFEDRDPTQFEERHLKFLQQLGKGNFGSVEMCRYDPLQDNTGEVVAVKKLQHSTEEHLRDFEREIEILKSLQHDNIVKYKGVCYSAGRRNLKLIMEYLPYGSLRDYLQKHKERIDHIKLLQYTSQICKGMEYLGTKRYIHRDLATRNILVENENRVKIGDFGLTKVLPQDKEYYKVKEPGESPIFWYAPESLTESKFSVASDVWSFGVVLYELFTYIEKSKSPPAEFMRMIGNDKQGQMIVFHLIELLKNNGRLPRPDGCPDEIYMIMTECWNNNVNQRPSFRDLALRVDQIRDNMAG

[13] = molecular target: ALK tyrosine kinase receptor (Homo sapiens, UniProt Q9UM73); experiment: Inhibition of ALK (unknown origin) by TR-FRET assay
HT-29 = experiment: Antiproliferative activity against human HT-29 cells assessed as cell growth inhibition measured after 72 hrs by tetrazolium staining based assay; format: functional; details: HT-29, 72 h
[14] = molecular target: Indoleamine 2,3-dioxygenase 1 (Homo sapiens, UniProt P14902); experiment: Inhibition of IDO1 in human Hela cells assessed as reduction in N-formylkynurenine formation incubated for 30 mins; format: cell-based
Sequence of Indoleamine 2,3-dioxygenase 1 (P14902 whole entry): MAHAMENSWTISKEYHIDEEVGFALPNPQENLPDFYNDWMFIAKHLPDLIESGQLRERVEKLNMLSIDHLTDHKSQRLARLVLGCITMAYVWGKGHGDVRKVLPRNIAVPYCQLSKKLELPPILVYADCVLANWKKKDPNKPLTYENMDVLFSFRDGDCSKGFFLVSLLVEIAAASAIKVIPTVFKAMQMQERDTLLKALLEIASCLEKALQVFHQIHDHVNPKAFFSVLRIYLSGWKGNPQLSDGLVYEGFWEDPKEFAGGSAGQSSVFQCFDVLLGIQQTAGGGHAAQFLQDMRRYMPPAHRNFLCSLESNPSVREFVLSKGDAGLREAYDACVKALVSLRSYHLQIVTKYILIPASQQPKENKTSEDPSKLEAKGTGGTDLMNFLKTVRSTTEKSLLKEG

K562 [15] = experiment: Antiproliferative activity against human K562 cells assessed as cell growth inhibition measured after 48 hrs by CCK-8 assay; format: functional, cell-based; details: K562, 48 h
K562 [16] = experiment: Antiproliferative activity against imatinib treated human K562 cells assessed as cell growth inhibition measured after 72 hrs by MTT assay; format: functional, cell-based; details: K562, 72 h
K562 [17] = experiment: Antiproliferative activity against human K562 cells assessed as cell growth inhibition measured after 72 hrs by MTT assay; format: functional, cell-based; details: K562, 72 h
OCI-AML2 [18] = experiment: Antiproliferative activity against human OCI-AML2 cells assessed as cell growth inhibition measured after 72 hrs by MTT assay; format: functional, cell-based; details: OCI-AML2, 72 h
OCI-AML2 [19] = experiment: Antiproliferative activity against imatinib and Ara-C resistant human OCI-AML2 cells assessed as cell growth inhibition measured after 72 hrs by MTT assay; format: functional, cell-based; details: OCI-AML2, 72 h
[20] = Cytotoxicity against human SK-MEL-29 cells assessed as cell growth inhibition measured after 24 hrs by WST-1 assay; format: functional, cell-based; details: SK-MEL-29, 24 h
SK-MEL-147 = experiment: Cytotoxicity against human SK-MEL-147 cells assessed as cell growth inhibition measured after 24 hrs by WST-1 assay; format: functional, cell-based; details: SK-MEL-147, 24 h
SK-MEL19 = experiment: Cytotoxicity against human SK-MEL19 cells assessed as cell growth inhibition measured after 24 hrs by WST-1 assay; format: functional, cell-based; details: SK-MEL19, 24 h
SK-MEL-103 = experiment: Cytotoxicity against human SK-MEL-103 cells assessed as cell growth inhibition measured after 24 hrs by WST-1 assay; format: functional, cell-based; details: SK-MEL-103, 24 h
U-118-MG = experiment: cells; details: Homo sapiens, 24 h
Description: Cytotoxicity against human U-118-MG cells assessed as cell growth inhibition measured after 24 hrs by MTT assay

HeLa = experiment: Cytotoxicity against human HeLa cells assessed as cell growth inhibition measured after 24 hrs by SRB assay
HL-60 [21] = experiment: Cytotoxicity against human HL-60 cells assessed as cell growth inhibition measured after 24 hrs by MTT assay; details: HL-60, 24 h, read-out: LC50
U-87 MG = experiment: Cytotoxicity against human U87 cells assessed as cell growth inhibition measured after 24 hrs by MTT assay
[22] = Inhibition of CDK2/cyclin E (unknown origin); set-up: species or system Homo sapiens

IC50 (SNU-638): 2.1 µM | IC50 (A549 [1]): 12.2 µM | IC50 (HT-1080): 3.4 µM
SMILES: O=C1Nc2ccc(F)cc2/C1=C1/Nc2ccccc2/C1=N\O
IC50 at 24 h [2]: 5.1 µM

IC50 [3]: 0.065 µM
SMILES: O=C1Nc2ccc(S(=O)(=O)O)cc2/C1=C1/Nc2ccccc2C1=O
IC50 [4]: 0.055 µM

SMILES: CN(C)CCN1C(=O)/C(=C2\Nc3ccccc3C2=O)c2ccccc21
IC50 (HL-60 [5]): 4.45 µM

IC50 (SNU-638): 6.5 µM | IC50 (A549 [1]): 6.4 µM | IC50 (HT-1080): 4.2 µM
SMILES: CC(C)(C)C(=O)Nc1ccc2c(c1)/C(=C1/Nc3ccccc3/C1=N\O)C(=O)N2
IC50 at 24 h [2]: 6.4 µM

IC50 (SW480 [6]): 2.5 µM | IC50 (A549 [7]): 13 µM
SMILES: NCCO/N=C1/C(=C2/C(=O)Nc3ccccc32)Nc2ccc(O)cc21
IC50 (CH1): 1.3 µM

IC50 (SW480 [8]): 2.91 µM | IC50 (HepG2): 2.95 µM | IC50 (HL-60 [10]): 1.29 µM
SMILES: CCCOc1cccc(/C=C/C(=O)c2ccc(OCCn3cc(CN4C(=O)/C(=C5\Nc6ccccc6\C5=N/O)c5ccccc54)nn3)cc2O)c1
IC50 [9]: 2.5 µM

SMILES: COC(=O)c1ccc2c(c1)/C(=C1/Nc3ccccc3/C1=N\O)C(=O)N2
GI50 (MV4-11): 0.0541 µM

IC50 (SW480 [6]): 0.52 µM | IC50 (A549 [7]): 1 µM
SMILES: NCCO/N=C1/C(=C2/C(=O)Nc3ccc(Br)cc32)Nc2ccc(O)cc21
IC50 (CH1): 0.28 µM

SMILES: CCN1C(=O)/C(=C2\Nc3ccccc3\C2=N/O)c2ccccc21
IC50 (MCF7): 6.72 µM | IC50 (DU-145): 7.44 µM | IC50 (LoVo): 8.49 µM | IC50 (LNCaP): 10.3 µM | IC50 (PC-3): 13.4 µM

IC50 [11]: > 10 µM | IC50 [12]: > 10 µM | IC50 [13]: > 10 µM | IC50 (HT-29): 4.22 µM
SMILES: O=C1Nc2ccc(C(=O)N3CCCCC3)cc2/C1=C1/Nc2ccccc2/C1=N\O

IC50 (SW480 [8]): 2.54 µM | IC50 (HepG2): 2.01 µM | IC50 (HL-60 [10]): 0.98 µM
SMILES: CCOc1ccccc1/C=C/C(=O)c1ccc(OCCn2cc(CN3C(=O)/C(=C4\Nc5ccccc5\C4=N/O)c4ccccc43)nn2)cc1O
IC50 [9]: 1.3 µM

IC50 (SW480 [6]): 5.6 µM | IC50 (A549 [7]): 7.6 µM
SMILES: CC(=O)O[C@H](CN)CC(=O)O/N=C1/C(=C2/C(=O)Nc3ccccc32)Nc2ccc(O)cc21
IC50 (CH1): 1.8 µM

IC50 [14]: 33.9 µM | IC50 (K562 [15]): 42.2 µM
SMILES: O=C1CCC(N2C(=O)c3cccc(-n4cc(COCCOCCOCCN5C(=O)/C(=C6\Nc7ccccc7C6=O)c6ccccc65)nn4)c3C2=O)C(=O)N1 (centres undefined)

IC50 (SW480 [8]): 3.43 µM | IC50 (HepG2): 2.28 µM | IC50 (HL-60 [10]): 1.28 µM
SMILES: CCCOc1ccccc1/C=C/C(=O)c1ccc(OCCn2cc(CN3C(=O)/C(=C4\Nc5ccccc5\C4=N/O)c4ccccc43)nn2)cc1O
IC50 [9]: 2.07 µM

IC50 (K562 [16]): 3.65 µM | IC50 (K562 [17]): 2.91 µM | IC50 (OCI-AML2 [18]): 2.42 µM | IC50 (OCI-AML2 [19]): 2.36 µM
SMILES: O=C1Nc2ccc(NC(=O)C(c3ccccc3)c3ccccc3)cc2/C1=C1/Nc2ccccc2/C1=N\O

SMILES: C[C@@H]1O[C@H](N2C(=O)/C(=C3\Sc4ccccc4C3=O)c3ccccc32)[C@H](O)[C@H](O)[C@H]1O
IC50 [20]: 6.29 µM | IC50 (SK-MEL-147): 7.52 µM | IC50 (SK-MEL19): 12 µM | IC50 (SK-MEL-103): 10.4 µM

SMILES: O=C1/C(=C2/C(=O)N([C@H]3O[C@H](CO)[C@@H](O)[C@H](O)[C@@H]3O)c3ccccc32)Sc2ccccc21
IC50 [20]: 3.96 µM | IC50 (SK-MEL-147): 4.28 µM | IC50 (SK-MEL19): 5.81 µM | IC50 (SK-MEL-103): 6.69 µM

SMILES: O=C1/C(=C2/C(=O)N(CCN3CCCC3)c3ccccc32)Nc2ccccc21
IC50 (HL-60 [5]): 3.56 µM

IC50 [14]: 54.7 µM | IC50 (K562 [15]): 34.2 µM
SMILES: Cc1cn(C2CC(n3cc(COCCOCCOCCN4C(=O)/C(=C5\Nc6ccccc6C5=O)c5ccccc54)nn3)C(CO)O2)c(=O)[nH]c1=O (centres undefined)

SMILES: O=C1Nc2ccccc2/C1=C1/Nc2ccccc2C1=O [INDIRUBIN]
IC50 (U-118-MG): 12.5 µM | IC50 (HeLa): 40 µM | CC50 (HL-60 [21]): 98.1 µg/mL (≈ 374 µM) | IC50 (U-87 MG): 12.5 µM | IC50 [22]: 7.5 µM
